Series [1] concerns the target T1, Amine oxidase [flavin-containing] A (Homo sapiens, UniProt P21397).
T1 sequence (P21397 whole entry): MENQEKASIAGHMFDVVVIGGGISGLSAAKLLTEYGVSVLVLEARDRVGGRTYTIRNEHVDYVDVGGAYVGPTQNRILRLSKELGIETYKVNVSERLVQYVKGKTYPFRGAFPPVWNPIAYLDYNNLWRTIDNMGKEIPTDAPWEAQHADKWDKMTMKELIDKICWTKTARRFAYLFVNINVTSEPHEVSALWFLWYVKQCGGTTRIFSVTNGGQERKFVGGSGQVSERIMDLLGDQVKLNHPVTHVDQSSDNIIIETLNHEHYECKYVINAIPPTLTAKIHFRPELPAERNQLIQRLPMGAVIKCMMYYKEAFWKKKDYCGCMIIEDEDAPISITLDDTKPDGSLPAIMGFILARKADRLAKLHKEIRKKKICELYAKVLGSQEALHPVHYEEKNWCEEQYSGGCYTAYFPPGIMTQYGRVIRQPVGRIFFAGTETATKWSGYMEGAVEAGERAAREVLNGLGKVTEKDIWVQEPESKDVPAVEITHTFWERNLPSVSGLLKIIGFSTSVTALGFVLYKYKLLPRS
Kind of series: Competitive inhibition of human MAO-A expressed in BTI insect cells using p-tyramine as substrate after 60 mins. The following applies: 1 h.

The target of series [2] is T1, Amine oxidase [flavin-containing] A. Kind of series: Reversible inhibition of human MAO-A expressed in BTI insect cells using p-tyramine as substrate after 60 mins. The conditions noted are these: 1 h.
The target is the same in series [3]. Kind of series: Inhibition of human MAO-A expressed in BTI insect cells using p-tyramine as substrate after 60 mins.
For series [4], the target named is T2, Amine oxidase [flavin-containing] B (Homo sapiens, UniProt P27338).
T2 sequence (P27338 whole entry): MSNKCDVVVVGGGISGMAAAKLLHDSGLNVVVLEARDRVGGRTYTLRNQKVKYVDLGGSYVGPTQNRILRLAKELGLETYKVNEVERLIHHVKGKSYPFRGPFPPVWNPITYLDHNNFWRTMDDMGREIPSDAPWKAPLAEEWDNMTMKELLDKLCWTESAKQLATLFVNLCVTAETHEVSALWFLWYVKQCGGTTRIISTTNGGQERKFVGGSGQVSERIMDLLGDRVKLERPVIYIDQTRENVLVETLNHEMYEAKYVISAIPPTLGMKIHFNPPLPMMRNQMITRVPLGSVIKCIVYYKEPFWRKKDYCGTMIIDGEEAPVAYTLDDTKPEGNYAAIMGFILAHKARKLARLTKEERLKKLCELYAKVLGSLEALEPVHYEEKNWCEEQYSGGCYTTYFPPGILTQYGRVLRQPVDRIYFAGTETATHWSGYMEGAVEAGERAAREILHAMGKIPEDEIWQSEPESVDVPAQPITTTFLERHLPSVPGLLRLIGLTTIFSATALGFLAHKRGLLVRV
Kind of series: Inhibition of human MAO-B expressed in BTI insect cells using p-tyramine as substrate after 60 mins. It counts as cell-based.

For the next series, the species on record is Homo sapiens. The series can be described thus: Selectivity index, ratio of Ki for human MAO-A to Ki for human MAO-B expressed in BTI insect cells.

With `C#CCN(C)[C@H](C)Cc1ccccc1` [SELEGILINE], the “inhibition (INH)” value in series [1] and in series [2] was “Active” throughout.

A word on the Ki: it is the dissociation constant of the complex between target and ligand, obtained from inhibition or displacement. The low end stands for a stronger hold on the target, the high end for a looser hold on the target. Regarding `COc1ccccc1NC(=S)N1N=C(c2ccccc2)CC1c1ccccc1O` (centres undefined), the results for the Ki in series [3] and in series [4] were 0.31 µM and 60 µM, respectively. For the same molecule, the “inhibition (INH)” value in series [1] and in series [2] was “Active” in each case. Further, in the series filed under Homo sapiens, the Ratio Ki stood at 0.005.

With `NC(=S)N1N=C(c2ccccc2)CC1c1ccncc1` (centres undefined), the inhibition constant (Ki) was found to be 0.456 µM in series [3] and 4 µM in series [4]. The “inhibition (INH)” value in series [1] and in series [2] was “Active” throughout. Also, the Ratio Ki in the series listed under Homo sapiens stood at 0.114.

Regarding `COc1ccc(NC(=S)N2N=C(c3ccccc3)CC2c2ccc(O)cc2)cc1` (centres undefined), the inhibition constant Ki in series [3] was determined as 0.09 µM; in series [4], 401 µM. The “inhibition (INH)” value in series [1] and in series [2] was “Active” each time. In addition, the Ratio Ki in the series listed under Homo sapiens turned out to be 0.000226.

In the case of `N=C(N)N1N=C(c2ccccc2)CC1c1ccc(Cl)cc1` (centres undefined), the values for the Ki in series [3] and in series [4] were 0.15 µM and 4.22 µM, respectively. Besides, the “inhibition (INH)” value in series [1] and in series [2] was “Active” in each case. Besides, the Ratio Ki in the series filed under Homo sapiens turned out to be 0.035.

For `Cc1ccc(C2CC(c3ccccc3)=NN2C(N)=O)cc1` (centres undefined), the inhibition constant (Ki) turned out to be 0.49 µM in series [3] and 3.2 µM in series [4]. Also, the “inhibition (INH)” value in series [1] and in series [2] was “Active” in each case. For the same molecule, in the series filed under Homo sapiens, the Ratio Ki stood at 0.153.

In the case of `COc1cccc(NC(=S)N2N=C(c3ccccc3)CC2c2ccccc2O)c1` (centres undefined), the Ki in series [3] turned out to be 0.1 µM; in series [4], 979 µM. Further, the “inhibition (INH)” value in series [1] and in series [2] was “Active” throughout. The Ratio Ki in the series filed under Homo sapiens is 0.000102.

Turning to `Cc1ccc(NC(=S)N2N=C(c3ccccc3)CC2c2ccccc2O)cc1` (centres undefined), the values for the Ki in series [3] and in series [4] were 0.29 µM and 69.9 µM, respectively. For the same molecule, the “inhibition (INH)” value in series [1] and in series [2] was “Active” each time. In addition, the Ratio Ki in the series filed under Homo sapiens was determined as 0.004.

Regarding `NC(=O)N1N=C(c2ccccc2)CC1c1ccncc1` (centres undefined), the Ki is 7 µM in series [3] and 4.79 µM in series [4]. Moreover, the “inhibition (INH)” value in series [1] and in series [2] was “Active” in each case. The Ratio Ki in the series listed under Homo sapiens is 1.46.

Regarding `Cc1ccccc1NC(=S)N1N=C(c2ccccc2)CC1c1ccccc1O` (centres undefined), the Ki in series [3] was 0.25 µM; in series [4] it was 22 µM. Besides, the “inhibition (INH)” value in series [1] and in series [2] was “Active” in each case. In addition, the Ratio Ki in the series filed under Homo sapiens was found to be 0.001.

As to `O=C(NCCN1CCOCC1)c1ccc(Cl)cc1` [MOCLOBEMIDE], the “inhibition (INH)” value in series [1] and in series [2] was “Active” in each case.

With `Cc1cccc(NC(=S)N2N=C(c3ccccc3)CC2c2ccc(O)cc2)c1` (centres undefined), the figures for the Ki in series [3] and in series [4] were 0.13 µM and 256 µM, respectively. Moreover, the “inhibition (INH)” value in series [1] and in series [2] was “Active” in each case. In addition, the Ratio Ki in the series listed under Homo sapiens came out at 0.000509.

`NC(=O)N1N=C(c2ccccc2)CC1c1ccc(Cl)cc1` (centres undefined): the inhibitory constant (Ki) in series [3] was determined as 0.3 µM; in series [4] it was 1.66 µM. In addition, the “inhibition (INH)” value in series [1] and in series [2] was “Active” throughout. Further, the Ratio Ki in the series listed under Homo sapiens stood at 0.181.

Consider `Cc1ccc(C2CC(c3ccccc3)=NN2C(=N)N)cc1` (centres undefined), for which the inhibitory constant (Ki) in series [3] was found to be 0.4 µM; in series [4] it was 4.11 µM. The “inhibition (INH)” value in series [1] and in series [2] was “Active” throughout. In addition, in the series listed under Homo sapiens, the Ratio Ki turned out to be 0.099.

As for `Cc1ccccc1NC(=S)N1N=C(c2ccccc2)CC1c1ccc(O)cc1` (centres undefined), the inhibitory constant (Ki) is 0.31 µM in series [3] and 309 µM in series [4]. In addition, the “inhibition (INH)” value in series [1] and in series [2] was “Active” each time. Besides, in the series filed under Homo sapiens, the Ratio Ki was 0.001.

Regarding `Cc1cccc(NC(=S)N2N=C(c3ccccc3)CC2c2ccccc2O)c1` (centres undefined), the values for the inhibition constant Ki in series [3] and in series [4] were 0.3 µM and 250 µM, respectively. For the same molecule, the “inhibition (INH)” value in series [1] and in series [2] was “Active” each time. Besides, the Ratio Ki in the series filed under Homo sapiens was found to be 0.001.

As to `COc1ccccc1NC(=S)N1N=C(c2ccccc2)CC1c1ccc(O)cc1` (centres undefined), the results for the Ki in series [3] and in series [4] were 2.15 µM and 2130 µM, respectively. The “inhibition (INH)” value in series [1] and in series [2] was “Active” in each case. In the series listed under Homo sapiens, the Ratio Ki amounted to 0.001.

On to `COc1cccc(NC(=S)N2N=C(c3ccccc3)CC2c2ccc(O)cc2)c1` (centres undefined), for which the inhibition constant Ki in series [3] was determined as 0.35 µM; in series [4] it was 355 µM. The “inhibition (INH)” value in series [1] and in series [2] was “Active” throughout. Moreover, in the series listed under Homo sapiens, the Ratio Ki came out at 0.000988.

With `COc1ccc(C2CC(c3ccccc3)=NN2C(N)=O)cc1` (centres undefined), the results for the Ki in series [3] and in series [4] were 0.98 µM and 1.88 µM, respectively. Also, the “inhibition (INH)” value in series [1] and in series [2] was “Active” throughout. The Ratio Ki in the series filed under Homo sapiens came to 0.521.

On to `N=C(N)N1N=C(c2ccccc2)CC1c1ccncc1` (centres undefined), for which the Ki in series [3] was determined as 0.67 µM; in series [4], 4.8 µM. The “inhibition (INH)” value in series [1] and in series [2] was “Active” each time. For the same molecule, the Ratio Ki in the series listed under Homo sapiens was determined as 0.14.

In the case of `Cc1ccc(NC(=S)N2N=C(c3ccccc3)CC2c2ccc(O)cc2)cc1` (centres undefined), the inhibition constant Ki in series [3] is 0.36 µM; in series [4] it was 300 µM. Also, the “inhibition (INH)” value in series [1] and in series [2] was “Active” each time. In addition, in the series listed under Homo sapiens, the Ratio Ki stood at 0.001.

Regarding `COc1ccc(NC(=S)N2N=C(c3ccccc3)CC2c2ccccc2O)cc1` (centres undefined), the Ki in series [3] is 0.17 µM; in series [4], 60.2 µM. Also, the “inhibition (INH)” value in series [1] and in series [2] was “Active” in each case. For the same molecule, the Ratio Ki in the series filed under Homo sapiens was found to be 0.001.

For the origin of these results see ChEMBL document CHEMBL1795245, “Pyrazoline based MAO inhibitors: synthesis, biological evaluation and SAR studies” (Bioorg Med Chem Lett, 2011).
